Reference: the supplement of paper PMC10307832

Assays:
Assay in all cases: relative viability (nuclei count vs DMSO), 5 days (fraction); higher = more cells survive
NCI-H2009 = system: NCI-H2009
Summary of the method: (§1)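 The day after seeding in 1536-well plates, lung cancer cell lines were treated by pin tool with a single drug, or with a fixed anchor-drug dose together with five library-drug doses (not always all listed) in √10 steps. After 5 days, a combined fix-and-stain solution (final 0.05% Triton X-100, 1% formaldehyde, 1 ug/ml Hoechst) was added. Nuclei counted on 4× images gave relative viability as treated counts over vehicle counts, reported as the median of duplicate plates.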

SW 1573 = system: SW 1573
Summary of the method: as §1

NCI-H2023 = system: NCI-H2023
Summary of the method: as §1

NCI-H2405 = system: NCI-H2405
Summary of the method: as §1

NCI-H2085 = system: NCI-H2085
Summary of the method: as §1

HCC-827 = system: HCC-827
Summary of the method: as §1

NCI-H1355 = system: NCI-H1355
Summary of the method: as §1

ABC-1 = system: ABC-1
Summary of the method: as §1

HCC-44 = system: HCC-44
Summary of the method: as §1

EPLC-272H = system: EPLC-272H
Summary of the method: as §1

PC-14 = system: PC-14
Summary of the method: as §1

NCI-H2228 = system: NCI-H2228
Summary of the method: as §1

COR-L23 = system: COR-L23
Summary of the method: as §1

NCI-H1734 = system: NCI-H1734
Summary of the method: as §1

NCI-H2347 = system: NCI-H2347
Summary of the method: as §1

HCC-366 = system: HCC-366
Summary of the method: as §1

NCI-H1944 = system: NCI-H1944
Summary of the method: as §1

HCC-15 = system: HCC-15
Summary of the method: as §1

NCI-H1793 = system: NCI-H1793
Summary of the method: as §1

NCI-H3122 = system: NCI-H3122
Summary of the method: as §1

Cc1csc(=NC2CCCCC2)n1/N=C/c1ccc(O)c(O)c1O [MIM1] + CS(=O)(=O)CCNCc1ccc(-c2ccc3ncnc(Nc4ccc(OCc5cccc(F)c5)c(Cl)c4)c3c2)o1 [Lapatinib] (partner 2 µM)
relative viability (NCI-H2009; first compound 0.2 µM): 1.04
relative viability (NCI-H2009; first compound 0.6325 µM): 0.876
relative viability (NCI-H2009; first compound 2 µM): 1.1
relative viability (NCI-H2009; first compound 6.325 µM): 0.449
relative viability (NCI-H2009; first compound 20 µM): 0.133
relative viability (SW 1573; first compound 0.2 µM): 1.07
relative viability (SW 1573; first compound 0.6325 µM): 1.15
relative viability (SW 1573; first compound 2 µM): 1.08
relative viability (SW 1573; first compound 6.325 µM): 0.993
relative viability (SW 1573; first compound 20 µM): 0.83
relative viability (NCI-H2023; first compound 0.2 µM): 0.947
relative viability (NCI-H2023; first compound 0.6325 µM): 0.716
relative viability (NCI-H2023; first compound 2 µM): 0.683
relative viability (NCI-H2023; first compound 6.325 µM): 0.253
relative viability (NCI-H2023; first compound 20 µM): 0.0707
relative viability (NCI-H2405; first compound 0.2 µM): 1.13
relative viability (NCI-H2405; first compound 0.6325 µM): 1.09
relative viability (NCI-H2405; first compound 2 µM): 1.12
relative viability (NCI-H2405; first compound 6.325 µM): 0.854
relative viability (NCI-H2405; first compound 20 µM): 0.606
relative viability (NCI-H2085; first compound 0.2 µM): 0.799
relative viability (NCI-H2085; first compound 0.6325 µM): 0.796
relative viability (NCI-H2085; first compound 2 µM): 0.772
relative viability (NCI-H2085; first compound 6.325 µM): 0.652
relative viability (NCI-H2085; first compound 20 µM): 0.537
relative viability (HCC-827; first compound 0.2 µM): 0.21
relative viability (HCC-827; first compound 0.6325 µM): 0.181
relative viability (HCC-827; first compound 2 µM): 0.198
relative viability (HCC-827; first compound 6.325 µM): 0.179
relative viability (HCC-827; first compound 20 µM): 0.248
relative viability (NCI-H1355; first compound 0.2 µM): 0.988
relative viability (NCI-H1355; first compound 0.6325 µM): 0.902
relative viability (NCI-H1355; first compound 2 µM): 0.967
relative viability (NCI-H1355; first compound 6.325 µM): 0.738
relative viability (NCI-H1355; first compound 20 µM): 0.483
relative viability (ABC-1; first compound 0.2 µM): 1.32
relative viability (ABC-1; first compound 0.6325 µM): 1.24
relative viability (ABC-1; first compound 2 µM): 1.31
relative viability (ABC-1; first compound 6.325 µM): 1.06
relative viability (ABC-1; first compound 20 µM): 1.11
relative viability (HCC-44; first compound 0.2 µM): 1.07
relative viability (HCC-44; first compound 0.6325 µM): 0.969
relative viability (HCC-44; first compound 2 µM): 0.798
relative viability (HCC-44; first compound 6.325 µM): 0.346
relative viability (HCC-44; first compound 20 µM): 0.128
relative viability (EPLC-272H; first compound 0.2 µM): 0.884
relative viability (EPLC-272H; first compound 0.6325 µM): 0.886
relative viability (EPLC-272H; first compound 2 µM): 0.722
relative viability (EPLC-272H; first compound 6.325 µM): 0.792
relative viability (EPLC-272H; first compound 20 µM): 0.528
relative viability (PC-14; first compound 0.2 µM): 0.305
relative viability (PC-14; first compound 0.6325 µM): 0.332
relative viability (PC-14; first compound 2 µM): 0.363
relative viability (PC-14; first compound 6.325 µM): 0.349
relative viability (PC-14; first compound 20 µM): 0.479
relative viability (NCI-H2228; first compound 0.2 µM): 1.25
relative viability (NCI-H2228; first compound 0.6325 µM): 0.735
relative viability (NCI-H2228; first compound 2 µM): 1.22
relative viability (NCI-H2228; first compound 6.325 µM): 0.346
relative viability (NCI-H2228; first compound 20 µM): 0.247
relative viability (COR-L23; first compound 0.2 µM): 0.931
relative viability (COR-L23; first compound 0.6325 µM): 1.07
relative viability (COR-L23; first compound 2 µM): 0.844
relative viability (COR-L23; first compound 6.325 µM): 0.619
relative viability (COR-L23; first compound 20 µM): 0.286
relative viability (NCI-H1734; first compound 0.2 µM): 1.18
relative viability (NCI-H1734; first compound 0.6325 µM): 0.874
relative viability (NCI-H1734; first compound 2 µM): 0.971
relative viability (NCI-H1734; first compound 6.325 µM): 0.823
relative viability (NCI-H1734; first compound 20 µM): 0.198
relative viability (NCI-H2347; first compound 0.2 µM): 0.941
relative viability (NCI-H2347; first compound 0.6325 µM): 1.07
relative viability (NCI-H2347; first compound 2 µM): 0.999
relative viability (NCI-H2347; first compound 6.325 µM): 0.59
relative viability (NCI-H2347; first compound 20 µM): 0.399
relative viability (HCC-366; first compound 0.2 µM): 1.01
relative viability (HCC-366; first compound 0.6325 µM): 0.905
relative viability (HCC-366; first compound 2 µM): 0.741
relative viability (HCC-366; first compound 6.325 µM): 0.548
relative viability (HCC-366; first compound 20 µM): 0.0188
relative viability (NCI-H1944; first compound 0.2 µM): 0.889
relative viability (NCI-H1944; first compound 0.6325 µM): 0.805
relative viability (NCI-H1944; first compound 2 µM): 0.491
relative viability (NCI-H1944; first compound 6.325 µM): 0.535
relative viability (NCI-H1944; first compound 20 µM): 0.445
relative viability (HCC-15; first compound 0.2 µM): 0.844
relative viability (HCC-15; first compound 0.6325 µM): 0.554
relative viability (HCC-15; first compound 2 µM): 0.98
relative viability (HCC-15; first compound 6.325 µM): 0.415
relative viability (HCC-15; first compound 20 µM): 0.102
relative viability (NCI-H1793; first compound 0.2 µM): 0.768
relative viability (NCI-H1793; first compound 0.6325 µM): 0.623
relative viability (NCI-H1793; first compound 2 µM): 0.645
relative viability (NCI-H1793; first compound 6.325 µM): 0.669
relative viability (NCI-H1793; first compound 20 µM): 0.459
relative viability (NCI-H3122; first compound 0.2 µM): 1.02
relative viability (NCI-H3122; first compound 0.6325 µM): 1.07
relative viability (NCI-H3122; first compound 2 µM): 1.01
relative viability (NCI-H3122; first compound 6.325 µM): 0.859
relative viability (NCI-H3122; first compound 20 µM): 0.304
